Data from patent US8603513B2 (priority 2007, dated 2013).
Where “and” joins values, the source holds several entries; their conditions need not be identical. Equal values may be shown once. Read-outs that look alike come from different tables or passages of the source.

Experiments:
[1] = test system: Staphylococcus aureus MN 8; format: cell-based
[2] = test system: TSST-1 toxin produced by S. aureus; format: cell-based, Staphylococcus aureus MN 8
[3] = test system: Lactobacillus crispatus (LMG 12005); format: cell-based
[4] = test system: Lactobacillus gasseri (ATCC 9857); format: cell-based
[5] = test system: Lactobacillus iners (LMG 18916); format: cell-based

Row | Compound | Change in S. Aureus CFU/ml vs. control [1] | % TSST-1 Change (ug/ml) vs. control [2] | % TSST-1 Change (ug/ml/mM) vs. control [2] | further results
1 | O=C1O[C@H]([C@@H](O)CO)C(O)=C1O [Calcium ascorbate, calcium ascorbate] | >2 log | – | – | growth of S. aureus relative to controls [1]: virtually eliminate the growth
2 | [Ca+2].[Cl-].[Cl-] [Calcium chloride] | ≦1 log | 82% | 2.5% and 1.1% | % TSST-1 Change (ug/ml) vs. control ([2]; 18-20 h, 37° C.): 37%
3 | CC(O)C(=O)[O-].CC(O)C(=O)[O-].[Ca+2] (stereo not shown) [Calcium lactate] | <1 log | 49% and 89% and 90% | 5.6% and 1.7% | Change in L. cripatus vs. control [3]: <1 log; Change in L. gasseri vs. control [4]: <1 log; Change in L. iners vs. control [5]: <1 log
4 | CCCCCCCCCCCCCCCCCC(=O)O [Calcium stearate, calcium stearate] | – | 65% and 62% | 6.6% and 0.6% | –
5 | [Cl][Cu][Cl] [Copper chloride] | >3 log | – | – | –
6 | [Cl][Fe][Cl] [Ferrous chloride] | >2 log | – | – | –
7 | [Cl-].[Cl-].[Mg+2] [Magnesium chloride] | ≦1 log | 47% | – | –
8 | [Cl-].[Cl-].[Zn+2] [Zinc chloride] | >2 log | – | – | –
